Test results as given in the supplement of paper PMC3974653.
Counter-ions that a name gives are not always drawn.

The compounds below were run on MTT (mouse pheochromocytoma) (assay: IC50 of cell viability (ATP content)). Settings: (24 or 48 h).
How it was run: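 Cells of the MTT mouse pheochromocytoma line, 5 µl per well at 200,000 cells/ml, were grown overnight at 37°C, 5% CO2 in white 1536-well plates with DMEM, 5% FBS and 1% horse serum. Pintool transfer then delivered 23 nl of library compound in DMSO, giving 8 final concentrations from 0.5 nM to 46 µM, for an exposure of 24 or 48 hrs. Luminescence from CellTiter-Glo was read after 15 minutes and referenced to positive-control wells (100%) and DMSO wells (0%). IC50 was calculated with a four-parameter logistic fit.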

| IC50 of cell viability [µM] | SMILES |
| --- | --- |
| > 46 | CC(=O)O[C@H](C)OC(=O)[C@@H](C)c1ccc(-c2ccccc2)c(F)c1 [Ropiopn] |
| > 46 | O=C(O)CCC(=O)c1ccc(-c2ccccc2)cc1 [Fenbufen] |
| > 46 | CCCC[S+](=O)([O-])N[C@@H](Cc1ccc(OCCCCC2CCNCC2)cc1)C(=O)O.Cl.O [Tirofiban] |
| > 46 | CC(=O)NC(Cc1ccccc1)C(=O)O (centres undefined) [AFALANINUM] |
| > 46 | C=C(c1ccc(C(=O)O)cc1)c1cc2c(cc1C)C(C)(C)CCC2(C)C [BEXAROTENE] |
| > 46 | Oc1ccc(CCNCCCCCCNCCc2ccccc2)cc1O [Dopexamine] |
| > 46 | CCCC[C@H]1C(=O)N(c2ccccc2)N(c2ccc(O)cc2)C1=O [Oxyphenbutazone] |
| > 46 | O=C(OCCO)c1ccccc1O [2-Hydroxyethyl salicylate] |
| > 46 | CCN(CC)CCOc1ccc(/C(=C(/Cl)c2ccccc2)c2ccccc2)cc1 [Enclomifene] |
| > 46 | CCc1ccc(C(=O)C(C)CN2CCCCC2)cc1 (centres undefined) [EPERISONE HYDROCHLORIDE] |
| > 46 | Nc1c2c(nc3ccccc13)CCCC2O (centres undefined) [HYDROXYTACRINE] |
| > 46 | NC(=O)n1c(O)c(C(=O)c2cccs2)c2cc(Cl)ccc21 [TENIDAPUM] |
| > 46 | NCCc1ccc(O)c(O)c1 [DOPAMINE] |
| > 46 | CC(=O)NC1[C@H]([C@H](O)[C@H](O)CO)OC(C(=O)O)=C[C@H]1NC(=N)N (some centres undefined) [Zanamivir] |
| > 46 | CC(=O)OCC(=O)[C@@]1(O)[C@@H](C[C@H]2[C@@H]3CC\C4=C\C(=O)\C=C/[C@]4(C)[C@@]3(F)[C@@H](O)C[C@]12C)OC(C)=O [Triamcinolone diacetate] |
| > 46 | O=C(CCCN1CCN(c2ccccn2)CC1)c1ccc(F)cc1 [Azaperone] |
| > 46 | Nc1ncnc2c1ncn2[C@@H]1O[C@@H]2COP(=O)(O)O[C@H]2[C@H]1O [Adenosine 3',5'-cyclic monophosphate] |
| > 46 | O=C(Oc1ccccc1)c1ccccc1O [Phenyl salicylate] |
| > 46 | COC1=C(OC)C(=O)C(C/C=C(\C)CC/C=C(\C)CC/C=C(\C)CC/C=C(\C)CC/C=C(\C)CC/C=C(\C)CC/C=C(\C)CC/C=C(\C)CC/C=C(\C)CCC=C(C)C)=C(C)C1=O [Ubidecarenone] |
| > 46 | CCc1cc(Cl)c(OC)c(C(=O)NC[C@@H]2CCCN2CC)c1O [Eticlopride hydrochloride] |

| IC50 of cell viability [µM] | SMILES |
| --- | --- |
| > 46 | O=P(O)(O)OP(=O)(O)O [Phosphotex] |
| > 46 | OC\C1=C\C(=O)\C(=C/O1)O [KOJIC ACID] |
| > 46 | C[C@@H]1C[C@H]2[C@@H]3CCC/4=C/C(=O)/C=C\[C@]4(C)[C@@]3(F)[C@@H](O)C[C@]2(C)[C@H]1C(=O)CO [Desoximetasone] |
| > 46 | CC[C@H](NC(C)C)[C@H](O)C1=CC=C(O)C2=C1\C=C/C(=O)N2 [PROCATEROL] |
| > 46 | NC(=O)c1ncn(C2OC(CO)C(O)C2O)n1 (centres undefined) [RIBAVIRIN] |
| > 46 | N=C(N)NCCN1CCCCCCC1 [Guanethidine sulfate] |
| > 46 | O[C@@H](CNC[C@H](O)[C@H]1CCc2cc(F)ccc2O1)[C@@H]1CCc2cc(F)ccc2O1 (racemic) [rac Nebivolol Hydrochloride] |
| > 46 | Cc1cc(O)cc(C)c1Cl [Chloroxylenol] |
| > 46 | CCOC(=O)[C@H](CCc1ccccc1)N[C@@H](C)C(=O)N1CCC[C@H]1C(=O)O [Enalaprila] |
| > 46 | C\C1=C\C(=O)OC2=C1C=CC(=C2)O [Hymecromone] |
| > 46 | CCCC(=O)N1CCCN(c2nc(N)c3cc(OC)c(OC)cc3n2)CC1 [BUNAZOSIN HYDROCHLORIDE] |
| > 46 | COc1ccc2[nH]cc(CCNC(C)=O)c2c1 [MELATONIN] |
| > 46 | CCCCCCCCCCCCCCCC(=O)OCC(COP(=O)(O)OCC[N+](C)(C)C)OC(=O)CCCCCCCCCCCCCCC (centres undefined) [COLFOSCERIL PALMITATE] |
| > 46 | CN[C@@H]1[C@H](O[C@H]2[C@H](O[C@H]3[C@H](O)[C@@H](O)[C@H](NC(=N)N)[C@@H](O)[C@@H]3NC(=N)N)O[C@@H](C)[C@]2(O)C=O)O[C@@H](CO)[C@H](O)[C@H]1O [Streptomycin sulfate] |
| > 46 | Cc1cc(C)c(/C=C2\C(=O)Nc3ccccc32)[nH]1 [SEMAXANIBUM] |
| > 46 | C[C@@H]1CCC[C@H](C)N1 [(cis-) Nanophine] |
| > 46 | COc1cc(O)cc(O)c1 [Flamenol] |
| > 46 | NC(=O)C1=CC=[N+](C\C2=C(\[N@]3[C@@H](SC2)[C@H](NC(=O)CC4=CC=CS4)C3=O)C([O-])=O)C=C1 [Cefalonium] |
| > 46 | C[C@H](CCC(=O)[O-])[C@H]1CC[C@H]2[C@@H]3CC[C@@H]4C[C@H](O)CC[C@]4(C)[C@H]3C[C@H](O)[C@]12C [Deoxycholic acid sodium salt] |
| > 46 | CCCCCCCCCCCCCCNCCO [MYRALACTUM] |

| IC50 of cell viability [µM] | SMILES |
| --- | --- |
| > 46 | NCCCC(N)CC(=O)NC1CNC(=O)C(C2CC(O)NC(N)=N2)NC(=O)/C(=C/NC(N)=O)NC(=O)C(CO)NC(=O)C(CO)NC1=O (centres undefined) [VIOMYCIN SULFATE] |
| > 46 | CCCCC1C(=O)N(c2ccccc2)N(c2ccccc2)C1=O [PHENYLBUTAZONE] |
| > 46 | Nc1nc(Cl)nc2c1ncn2C1CC(O)C(CO)O1 (centres undefined) |
| > 46 | NC(CSSCC(N)C(=O)O)C(=O)O (centres undefined) [CYSTINE] |
| > 46 | COc1ccc([C@@H]2CNC(=O)C2)cc1OC1CCCC1 [Rolipram] |
| > 46 | COc1cc(C(=O)N2CCOCC2)cc(OC)c1OC [Trimetozine] |
| > 46 | Nc1ncnc2c1ncn2[C@@H]1O[C@H](COP(=O)(O)O)[C@@H](O)[C@H]1O [ADENOSINE-5'-MONOPHOSPHATE (AMP)] |
| > 46 | O=C(NCCO[N+](=O)[O-])c1cccnc1 [Nicorandil] |
| > 46 | CN(C/C=C\c1ccccc1)Cc1cccc2ccccc12 [Naftifine hydrochloride] |
| > 46 | OC(C#CCN1CCCC1)(c1ccccc1)c1ccccc1 [Butinolina] |
| > 46 | C[C@]\12CCC(=O)\C=C1CC[C@@H]3[C@@H]2CC[C@@]4(C)[C@H]3CC[C@]4(O)C(=O)CO [Cortexolone] |
| > 46 | N[C@H](CO)C(=O)O [D-SERINE] |
| > 46 | OC[C@H]1O[C@@H](n2cnc3c2N=CNC[C@H]3O)C[C@@H]1O [Pentostatin] |
| > 46 | O=C(NC1CCN(CCc2c[nH]c3ccccc23)CC1)c1ccccc1 [INDORAMIN HYDROCHLORIDE] |
| > 46 | CCCCCCCCCCCC(CC1OC(=O)C1CCCCCC)OC(=O)C(CC(C)C)NC=O (centres undefined) [ORLISTAT] |
| > 46 | CCOC(=O)[C@@H](N)CS [L-CYSTEINE ETHYLESTER HYDROCHLORIDE] |
| > 46 | C\C1=C(\[N@]2[C@@H](SC1)[C@H](NC(=O)[C@@H](N)C3=CC=C(O)C=C3)C2=O)C(O)=O [Cefadroxil] |
| > 46 | CC(C)(C)CC(=O)OCC(=O)[C@@]12OC(C)(C)O[C@@H]1C[C@H]1[C@@H]3CCC4=CC(=O)C=C[C@]4(C)[C@@]3(F)[C@@H](O)C[C@]12C [Triamcinolone hexacetonide] |
| > 46 | CO[C@H]1C[C@H](O[C@@H]2[C@H](C)[C@H](O[C@@H]3O[C@@H](C)C[C@@H](N(C)C)[C@H]3O)[C@H](C)C[C@]3(CO3)C(=O)[C@H](C)[C@H](O)[C@H](C)[C@H](C)OC(=O)[C@@H]2C)O[C@@H](C)[C@H]1O [Oleandomycin phosphate] |
| > 46 | COc1ccc(C[C@H](C)NC[C@@H](O)c2ccc(O)c(NC=O)c2)cc1 [Formoterol hemifumarate] |

| SMILES | IC50 of cell viability [µM] |
| --- | --- |
| CC12NC(Cc3ccccc31)c1ccccc12.O=C(O)/C=C/C(=O)O (single isomer, unassigned; (-)) [(-)-MK-801 hydrogen maleate] | > 46 |
| O=[N+]([O-])c1ccccc1 [Nitrobenzene] | > 46 |
| Cc1ccccc1C(OCCN(C)C)c1ccccc1.O=C(O)CC(O)(CC(=O)O)C(=O)O (centres undefined) [ORPHENADRINE CITRATE] | > 46 |
| Cc1ccc(Cl)c(O)c1 [CHLORO-M-CRESOL] | > 46 |
| NCC(O)c1cccc(O)c1 (centres undefined) [NORFENEFRINE HYDROCHLORIDE] | > 46 |
| Oc1cc(Cl)c(Cl)cc1Cl [2,4,5-Trichlorophenol] | > 46 |
| ClCc1ccccc1.O=C1CC2OCC=C3CN4CCC56c7ccccc7N1C5[C@H]2[C@H]3C[C@H]46 (some centres undefined) [STRYCHNINE SULFATE] | > 46 |
| CNC(=O)Oc1ccccc1C(=O)Nc1ccccc1 [Anilamate] | > 46 |
| CC(=O)N(O)CCCCCNC(=O)CCC(=O)N(O)CCCCCNC(=O)CCC(=O)N(O)CCCCCN.C[S+](=O)([O-])O [Deferoxamine mesylate] | > 46 |
| CCC1(CC)C(=O)NC(=O)NC1=O [Barbital] | > 46 |
| CCOC(=O)CC(SP(=S)(OC)OC)C(=O)OCC (centres undefined) [Malathion] | > 46 |
| CC(C)CC(CN)CC(=O)O (centres undefined) [PREGABALIN] | > 46 |
| O=[N+]([O-])c1c2ccccc2cc2ccccc12 [9-Nitroanthracene] | > 46 |
| C[N+](C)(C)CC(=O)[O-].Cl [BETAINE HYDROCHLORIDE] | > 46 |
